Reference: PubChem BioAssay AID192 (DTP/NCI, 2004)
Where “and” joins values, the source holds several entries; their conditions need not be identical. Identical values can stand only once. Toxic doses and inconclusive results are not listed.

Tested on: BDF1 mice, B16 melanoma ip, median survival T/C
Assay: NCI In Vivo Anticancer Drug Screen. Data for tumor model B16 Melanoma (intraperitoneal) in B6D2F1 (BDF1) mice
Details: endpoint: median survival time, higher = longer survival
Outline: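 The ratio T/C compares compound-treated mice with vehicle-treated controls, using survival or tumor size as the endpoint in a transplantable tumor model.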

[1] = dose: 50.0 mg/kg/injection, schedule: Q04DX003 (ip), vehicle: Klucel (hydroxypropylcellulose) (HPC)
[2] = dose: 100.0 mg/kg/injection, schedule: Q04DX003 (ip), vehicle: Klucel (hydroxypropylcellulose) (HPC)
[3] = dose: 100.0 mg/kg/injection, schedule: Q01DX009 (ip), vehicle: saline with Tween-80
[4] = dose: 6.25 mg/kg/injection, schedule: Q01DX009 (ip), vehicle: Klucel (hydroxypropylcellulose) (HPC)
[5] = dose: 12.5 mg/kg/injection, schedule: Q01DX009 (ip), vehicle: Klucel (hydroxypropylcellulose) (HPC)
[6] = dose: 25.0 mg/kg/injection, schedule: Q01DX009 (ip), vehicle: Klucel (hydroxypropylcellulose) (HPC)
[7] = dose: 50.0 mg/kg/injection, schedule: Q01DX009 (ip), vehicle: Klucel (hydroxypropylcellulose) (HPC)
[8] = dose: 3.13 mg/kg/injection, schedule: Q01DX009 (ip), vehicle: saline with Tween-80
[9] = dose: 6.25 mg/kg/injection, schedule: Q01DX009 (ip), vehicle: saline with Tween-80
[10] = dose: 8.0 mg/kg/injection, schedule: Q01DX009 (ip), vehicle: saline with Tween-80
[11] = dose: 12.5 mg/kg/injection, schedule: Q01DX009 (ip), vehicle: saline with Tween-80
[12] = dose: 25.0 mg/kg/injection, schedule: Q04DX003 (ip), vehicle: Klucel (hydroxypropylcellulose) (HPC)
[13] = dose: 1.56 mg/kg/injection, schedule: Q01DX009 (ip), vehicle: saline with Tween-80
[14] = dose: 12.5 mg/kg/injection, schedule: Q04DX003 (ip), vehicle: Klucel (hydroxypropylcellulose) (HPC)
[15] = dose: 25.0 mg/kg/injection, schedule: Q01DX009 (ip), vehicle: saline with Tween-80
[16] = dose: 50.0 mg/kg/injection, schedule: Q01DX009 (ip), vehicle: saline with Tween-80

## O=c1[nH]c(=O)c2nc(-c3cccnc3)cnc2[nH]1
dose: 12.5 mg/kg/injection, schedule: Q01DX009 (ip), vehicle: saline
  T/C: 104 % of control
dose: 25.0 mg/kg/injection, schedule: Q01DX009 (ip), vehicle: saline
  T/C: 93 % of control
dose: 50.0 mg/kg/injection, schedule: Q01DX009 (ip), vehicle: saline
  T/C: 97 % of control
dose: 100.0 mg/kg/injection, schedule: Q01DX009 (ip), vehicle: saline
  T/C: 89 % of control

## NC(=O)c1ncn(C2OC(CO)C(O)C2O)n1 (stereo not drawn)
dose: 20.0 mg/kg/injection, schedule: Q01DX009 (ip), vehicle: saline
  T/C: 90 % of control
dose: 40.0 mg/kg/injection, schedule: Q01DX009 (ip), vehicle: saline
  T/C: 102 % of control
[1]
  T/C: 102 % of control
dose: 80.0 mg/kg/injection, schedule: Q01DX009 (ip), vehicle: saline
  T/C: 97 % of control
[2]
  T/C: 95 % of control
dose: 160.0 mg/kg/injection, schedule: Q01DX009 (ip), vehicle: saline
  T/C: 108 % of control
dose: 200.0 mg/kg/injection, schedule: Q04DX003 (ip), vehicle: Klucel (hydroxypropylcellulose) (HPC)
  T/C: 98 % of control

## CCOC(=O)c1ccc(OC(=O)Nc2ccc(Cl)cc2)cc1
[3]
  T/C: 96 % of control
dose: 200.0 mg/kg/injection, schedule: Q01DX009 (ip), vehicle: saline with Tween-80
  T/C: 92 % of control

## COc1ccc2c(Cc3ccccc3)cncc2c1O
[4]
  T/C: 97 % of control
[5]
  T/C: 99 % of control
[6]
  T/C: 102 % of control
[7]
  T/C: 104 % of control

## COc1cc(NS(C)(=O)=O)ccc1Nc1c2ccc(Cl)cc2nc2c(OC)cccc12
dose: 0.38 mg/kg/injection, schedule: Q01DX009 (ip), vehicle: saline with Tween-80
  T/C: 123 % of control
dose: 0.75 mg/kg/injection, schedule: Q01DX009 (ip), vehicle: saline with Tween-80
  T/C: 110 % of control
dose: 0.8 mg/kg/injection, schedule: Q01DX005 (iv), vehicle: water
  T/C: 96 % of control
dose: 0.8 mg/kg/injection, schedule: Q04DX003 (iv), vehicle: water
  T/C: 100 % of control
dose: 1.6 mg/kg/injection, schedule: Q01DX005 (iv), vehicle: water
  T/C: 104 % of control
dose: 1.6 mg/kg/injection, schedule: Q04DX003 (iv), vehicle: water
  T/C: 92 % of control
dose: 2.3 mg/kg/injection, schedule: Q01DX009 (ip), vehicle: other
  T/C: 156 % of control
dose: 3.0 mg/kg/injection, schedule: Q01DX009 (ip), vehicle: saline with Tween-80
  T/C: 152 % of control
[8]
  T/C: 178 % of control
dose: 3.3 mg/kg/injection, schedule: Q01DX005 (iv), vehicle: water
  T/C: 106 % of control
dose: 3.3 mg/kg/injection, schedule: Q04DX003 (iv), vehicle: water
  T/C: 96 % of control
dose: 4.5 mg/kg/injection, schedule: Q01DX009 (ip), vehicle: other
  T/C: 184 % of control
[9]
  T/C: 194 % of control
dose: 6.5 mg/kg/injection, schedule: Q01DX005 (iv), vehicle: water
  T/C: 109 % of control
dose: 6.5 mg/kg/injection, schedule: Q04DX003 (iv), vehicle: water
  T/C: 105 % of control
[10]
  T/C: 178 % of control and 185 % of control
dose: 9.0 mg/kg/injection, schedule: Q01DX009 (ip), vehicle: other
  T/C: 241 % of control
dose: 9.0 mg/kg/injection, schedule: Q04DX003 (ip), vehicle: water
  T/C: 152 % of control
dose: 12.0 mg/kg/injection, schedule: Q01DX009 (ip), vehicle: saline with Tween-80
  T/C: 190 % of control and 219 % of control
[11]
  T/C: 236 % of control
dose: 13.0 mg/kg/injection, schedule: Q04DX003 (iv), vehicle: water
  T/C: 111 % of control
dose: 18.0 mg/kg/injection, schedule: Q01DX009 (ip), vehicle: saline with Tween-80
  T/C: 196 % of control
dose: 18.0 mg/kg/injection, schedule: Q04DX003 (ip), vehicle: water
  T/C: 172 % of control
dose: 36.0 mg/kg/injection, schedule: Q04DX003 (ip), vehicle: water
  T/C: 200 % of control

## CCOC(=O)c1c(NC(=O)CCC(=O)Nc2sc(C)c(C)c2C(=O)OCC)sc(C)c1C
dose: 0.09 mg/kg/injection, schedule: Q01DX009 (ip), vehicle: Klucel (hydroxypropylcellulose) (HPC)
  T/C: 100 % of control
dose: 0.19 mg/kg/injection, schedule: Q01DX009 (ip), vehicle: Klucel (hydroxypropylcellulose) (HPC)
  T/C: 95 % of control
dose: 0.39 mg/kg/injection, schedule: Q01DX009 (ip), vehicle: Klucel (hydroxypropylcellulose) (HPC)
  T/C: 100 % of control
dose: 0.78 mg/kg/injection, schedule: Q01DX009 (ip), vehicle: Klucel (hydroxypropylcellulose) (HPC)
  T/C: 89 % of control
dose: 1.56 mg/kg/injection, schedule: Q01DX009 (ip), vehicle: Klucel (hydroxypropylcellulose) (HPC)
  T/C: 95 % of control

## CCOC(=O)N1Cc2cc3cc(Cl)ccc3nc2C1
[10]
  T/C: 103 % of control
dose: 16.0 mg/kg/injection, schedule: Q01DX009 (ip), vehicle: saline with Tween-80
  T/C: 95 % of control
dose: 32.0 mg/kg/injection, schedule: Q01DX009 (ip), vehicle: saline with Tween-80
  T/C: 93 % of control
dose: 64.0 mg/kg/injection, schedule: Q01DX009 (ip), vehicle: saline with Tween-80
  T/C: 112 % of control

## Cc1c(C(=O)O)cc2n(c1=O)Cc1cc3ccccc3nc1-2
[12]
  T/C: 102 % of control
[1]
  T/C: 94 % of control
[2]
  T/C: 89 % of control
dose: 100.0 mg/kg/injection, schedule: Q04DX003 (ip), vehicle: saline with Tween-80
  T/C: 100 % of control

## CC(C)Nc1ncnc2[nH]ncc12
dose: 1.0 mg/kg/injection, schedule: Q01DX009 (ip), vehicle: Klucel (hydroxypropylcellulose) (HPC)
  T/C: 96 % of control
dose: 2.0 mg/kg/injection, schedule: Q01DX009 (ip), vehicle: Klucel (hydroxypropylcellulose) (HPC)
  T/C: 105 % of control
dose: 4.0 mg/kg/injection, schedule: Q01DX009 (ip), vehicle: Klucel (hydroxypropylcellulose) (HPC)
  T/C: 94 % of control
dose: 8.0 mg/kg/injection, schedule: Q01DX009 (ip), vehicle: Klucel (hydroxypropylcellulose) (HPC)
  T/C: 102 % of control

## CCCC1CC[N-]CC1.CCCC1CC[N-]CC1.CCCC1CC[N-]CC1.CCCC1CC[N-]CC1.[Cl][Rh][Cl]
dose: 0.37 mg/kg/injection, schedule: Q01DX009 (ip), vehicle: Klucel (hydroxypropylcellulose) (HPC)
  T/C: 104 % of control
dose: 0.75 mg/kg/injection, schedule: Q01DX009 (ip), vehicle: Klucel (hydroxypropylcellulose) (HPC)
  T/C: 102 % of control
dose: 1.5 mg/kg/injection, schedule: Q01DX009 (ip), vehicle: Klucel (hydroxypropylcellulose) (HPC)
  T/C: 100 % of control
[13]
  T/C: 109 % of control
[8]
  T/C: 116 % of control
[9]
  T/C: 98 % of control

## O=C1C(=O)c2ccccc2-c2ccccc21
[13]
  T/C: 100 % of control
[8]
  T/C: 89 % of control
[4]
  T/C: 102 % of control
[9]
  T/C: 97 % of control
[5]
  T/C: 101 % of control
[11]
  T/C: 100 % of control
[14]
  T/C: 98 % of control
[6]
  T/C: 104 % of control
[12]
  T/C: 89 % of control
[7]
  T/C: 109 % of control
[1]
  T/C: 98 % of control
dose: 50.0 mg/kg/injection, schedule: Q04DX003 (ip), vehicle: saline with Tween-80
  T/C: 166 % of control
[2]
  T/C: 89 % of control

## COC(=O)C(F)C(Br)C(=O)OC (stereo not drawn)
dose: 3.12 mg/kg/injection, schedule: Q01DX009 (ip), vehicle: saline with Tween-80
  T/C: 105 % of control
[9]
  T/C: 99 % of control
[11]
  T/C: 94 % of control
[15]
  T/C: 99 % of control
[16]
  T/C: 98 % of control

## CCCCNC(=S)N/N=C/c1ccccn1
[15]
  T/C: 102 % of control
[16]
  T/C: 99 % of control
[3]
  T/C: 104 % of control

## CC(=O)OCC(OC(C)=O)C(OC(C)=O)C(C#N)OC(C)=O (stereo not drawn)
[14]
  T/C: 100 % of control
[12]
  T/C: 95 % of control
[1]
  T/C: 97 % of control

## CCNC(=O)OCc1c(COC(=O)NCC)c(-c2ccc(Cl)c(Cl)c2)n2c1CCC2
[9]
  T/C: 122 % of control
[15]
  T/C: 90 % of control

## COC(=O)NC1CC=CCC1I (stereo not drawn)
dose: 12.5 mg/kg/injection, schedule: Q01DX009 (ip), vehicle: saline + alcohol
  T/C: 109 % of control
dose: 25.0 mg/kg/injection, schedule: Q01DX009 (ip), vehicle: saline + alcohol
  T/C: 97 % of control
dose: 50.0 mg/kg/injection, schedule: Q01DX009 (ip), vehicle: saline + alcohol
  T/C: 88 % of control
